Several values for one entry are separate records, joined by “and”; a condition that tells them apart may be missing. Equal values may be shown once. Inconclusive results and toxic doses are left out.
System: P388 leukemia ip, CD2F1 mice, survival T/C
Test: NCI In Vivo Anticancer Drug Screen. Data for tumor model P388 Leukemia (intraperitoneal) in CD2F1 (CDF1) mice
Conditions: endpoint: median survival time, higher = longer survival
How it was run: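 Mice carrying the transplanted tumor received test compound or vehicle. Survival was recorded in each group, and the value is the treated-group measurement divided by that of the vehicle-treated control group.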

[1] = dose: 25.0 mg/kg/injection, schedule: Q01DX009 (ip), vehicle: saline with Tween-80
[2] = dose: 50.0 mg/kg/injection, schedule: Q01DX009 (ip), vehicle: saline with Tween-80
[3] = dose: 100.0 mg/kg/injection, schedule: Q01DX009 (ip), vehicle: saline with Tween-80
[4] = dose: 50.0 mg/kg/injection, schedule: Q01DX009 (ip), vehicle: saline

`CC1CC12OC(=O)N(c1cc(Cl)cc(Cl)c1)C2=O` (configuration not stated) was tested, and the T/C (dose: 50.0 mg/kg/injection, schedule: Q01DX005 (ip), vehicle: saline + Tween-80 + alcohol) was 98 % of control, the T/C (dose: 100.0 mg/kg/injection, schedule: Q01DX005 (ip), vehicle: saline + Tween-80 + alcohol) was 100 % of control and the T/C (dose: 200.0 mg/kg/injection, schedule: Q01DX005 (ip), vehicle: saline + Tween-80 + alcohol) was 101 % of control.

With `CC(C)(C)N=O` the T/C [1] was 104 % of control, the T/C [2] was 103 % of control and the T/C (dose: 100.0 mg/kg/injection, schedule: Q01DX001 (ip), vehicle: saline with Tween-80) was 100 % of control and 106 % of control. For the same molecule, the T/C [3] was 111 % of control, the T/C (dose: 200.0 mg/kg/injection, schedule: Q01DX001 (ip), vehicle: saline with Tween-80) was 100 % of control and 106 % of control and 109 % of control and the T/C (dose: 400.0 mg/kg/injection, schedule: Q01DX001 (ip), vehicle: saline with Tween-80) was 105 % of control and 119 % of control. For the same molecule, the T/C (dose: 800.0 mg/kg/injection, schedule: Q01DX001 (ip), vehicle: saline with Tween-80) was 89 % of control.

With `O=C(O)/C=C(O)/C=C/c1ccccc1` the T/C (dose: 100.0 mg/kg/injection, schedule: Q04DX003 (ip), vehicle: saline with Tween-80) was 92 % of control, the T/C (dose: 200.0 mg/kg/injection, schedule: Q04DX003 (ip), vehicle: saline with Tween-80) was 101 % of control and the T/C (dose: 400.0 mg/kg/injection, schedule: Q04DX003 (ip), vehicle: saline with Tween-80) was 101 % of control.

For `CCCCCCC(/C=C/c1ccc(Cl)c(Cl)c1)=N\Nc1ccc(Cl)c(Cl)c1`, the T/C [1] was 90 % of control, the T/C [2] was 88 % of control and 93 % of control and the T/C [3] was 94 % of control. For the same molecule, the T/C (dose: 200.0 mg/kg/injection, schedule: Q01DX009 (ip), vehicle: saline with Tween-80) was 87 % of control.

In the case of `ClCCN(Cc1ccccc1)Cc1ccccc1`, the T/C (dose: 3.13 mg/kg/injection, schedule: Q01DX009 (ip), vehicle: saline with Tween-80) was 104 % of control, the T/C (dose: 6.25 mg/kg/injection, schedule: Q01DX009 (ip), vehicle: saline with Tween-80) was 119 % of control and the T/C (dose: 12.5 mg/kg/injection, schedule: Q01DX009 (ip), vehicle: saline with Tween-80) was 123 % of control.

`Nc1nc(N)nc(-c2cc(Br)c(N)c(Br)c2)n1` was tested, and the T/C (dose: 50.0 mg/kg/injection, schedule: Q01DX005 (ip), vehicle: saline with Tween-80) was 95 % of control, the T/C (dose: 100.0 mg/kg/injection, schedule: Q01DX005 (ip), vehicle: saline with Tween-80) was 101 % of control and the T/C (dose: 200.0 mg/kg/injection, schedule: Q01DX005 (ip), vehicle: saline with Tween-80) was 93 % of control.

`CCC12CCCN3CCc4c(n(c5ccc(Br)cc45)C(=O)/C(=N\O)C1)C32` (configuration not stated) was tested, and the T/C (dose: 60.0 mg/kg/injection, schedule: Q01DX005 (ip), vehicle: saline with Tween-80) was 101 % of control, the T/C (dose: 120.0 mg/kg/injection, schedule: Q01DX005 (ip), vehicle: saline with Tween-80) was 97 % of control and the T/C (dose: 240.0 mg/kg/injection, schedule: Q01DX005 (ip), vehicle: saline with Tween-80) was 97 % of control.

For `CCCCCCCCCCCCSSSCCCCCCCCCCCC`, the T/C [4] was 106 % of control, the T/C (dose: 100.0 mg/kg/injection, schedule: Q01DX009 (ip), vehicle: saline) was 97 % of control and the T/C (dose: 200.0 mg/kg/injection, schedule: Q01DX009 (ip), vehicle: saline) was 99 % of control and 87 % of control.

For `O=NN(C(=O)NC1CCC(C(=O)O)CC1)C1CCC(C(=O)O)CC1` (configuration not stated), the T/C (dose: 25.0 mg/kg/injection, schedule: Q01DX001 (ip), vehicle: distilled water + Tween-80) was 93 % of control, the T/C (dose: 50.0 mg/kg/injection, schedule: Q01DX001 (ip), vehicle: distilled water + Tween-80) was 93 % of control and the T/C (dose: 100.0 mg/kg/injection, schedule: Q01DX001 (ip), vehicle: distilled water + Tween-80) was 93 % of control. For the same molecule, the T/C (dose: 200.0 mg/kg/injection, schedule: Q01DX001 (ip), vehicle: distilled water + Tween-80) was 101 % of control.

With `COc1cc2cc(c1Cl)N(C)C(=O)CC(OC(=O)C(C)NC(=O)C(C)C)C1(C)OC1C(C)C1CC(O)(NC(=O)O1)C(OC)/C=C/C=C(C)C2OC` (configuration not stated) the T/C (dose: 32.0 micrograms/kg/injection, schedule: Q01DX009 (ip), vehicle: distilled water + alcohol) was 159 % of control.

With `NC(=O)c1[nH]c(N=Nc2ccccc2)nc1N` the T/C (dose: 100.0 mg/kg/injection, schedule: Q04DX003 (ip), vehicle: Klucel (hydroxypropylcellulose) (HPC)) was 102 % of control, the T/C (dose: 200.0 mg/kg/injection, schedule: Q04DX003 (ip), vehicle: Klucel (hydroxypropylcellulose) (HPC)) was 102 % of control and the T/C (dose: 400.0 mg/kg/injection, schedule: Q04DX003 (ip), vehicle: Klucel (hydroxypropylcellulose) (HPC)) was 103 % of control.

In the case of `CCCCCCCCCCCCCCCC[N+]1([O-])CCCC1`, the T/C [4] was 102 % of control.

With `CCNC(=O)OCC1=C(COC(=O)NCC)C2OC1C(C(=O)OC)=C2C(=O)OC` the T/C (dose: 3.13 mg/kg/injection, schedule: Q01DX009 (ip), vehicle: distilled water + Tween-80) was 100 % of control, the T/C (dose: 6.25 mg/kg/injection, schedule: Q01DX009 (ip), vehicle: distilled water + Tween-80) was 98 % of control and the T/C (dose: 12.5 mg/kg/injection, schedule: Q01DX009 (ip), vehicle: distilled water + Tween-80) was 100 % of control and 87 % of control. For the same molecule, the T/C (dose: 25.0 mg/kg/injection, schedule: Q01DX009 (ip), vehicle: distilled water + Tween-80) was 109 % of control.

Reference: PubChem BioAssay AID330 (DTP/NCI, 2004)
